Active and inactive are the calls of the source. The calls are words filed in the database; no cut-off is given here.

The target of series [1] is Amyloid-beta precursor protein (Homo sapiens) (UniProt P05067). Briefly: Inhibition of Amyloid beta (1 to 42) (unknown origin) self aggregation at 5 uM pre-incubated for 24 hrs by Thioflavin T-based fluorometric assay.
The next series concerns the target Acetylcholinesterase (Electrophorus electricus, UniProt O42275).
Series [2] deals with Beta-secretase 1 (Homo sapiens) (UniProt P56817). Kind of series: Inhibition of BACE1 (unknown origin) at 10 uM using ([Asn670, Lue671]-Amyloid beta/A4 precursor protein 770 fragment 667-676-(2,4dinitrophenyl) Lys-Arg-Arg amide trifluoroacetate salt substrate incubated for 2 hrs by FRET assay.
The target in series [3] is Amyloid-beta precursor protein (Homo sapiens) (UniProt P05067). Kind of series: Inhibition of Amyloid beta (1 to 42) (unknown origin) self aggregation at 50 uM pre-incubated for 24 hrs by Thioflavin T-based fluorometric assay.
The test system of series [4] is HT-22. Briefly: Cytoprotective activity in mouse HT22 cells assessed as reduction in glutamate-induced cytotoxicity at 0.3 to 10 uM pre-incubated for 30 mins before incubation with glutamate for 24 hrs by MTT assay. Type of series: functional, cell-based.
For the next series, the target named is Cholinesterase (Equus caballus, UniProt P81908). Kind of series: Inhibition of horse serum BuChE pre-incubated for 20 mins before […] substrate addition by Ellman's assay. (In general: DTNB colorimetry detects thiols as they appear.)
Series [5] concerns HT-22. Briefly: Cytotoxicity against mouse HT22 cells assessed as reduction in cell viability at 100 uM after 24 hrs by MTT assay. Type of series: cell-based. To be noted: ht-22, 24 h. Background: Tetrazolium assays rely on reduction of a dye to a coloured formazan, in cell work by metabolically active cells.
Series [6] concerns HT-22. Briefly: Cytoprotective activity in mouse HT22 cells assessed as reduction in glutamate-induced cytotoxicity at 10 uM pre-incubated for 30 mins before incubation with glutamate for 24 hrs by MTT assay. The series is classed as functional, cell-based.
Series [7] is described as follows: Metal chelating activity assessed as copper chelation activity by measuring barhochromic shift at 40 uM using CuCl2 UV-vis spectroscopy. Type of series: physicochemical.
The subject of series [8] is HT-22. Kind of series: Cytoprotective activity in mouse HT22 cells assessed as reduction in glutamate-induced cytotoxicity at 3 uM pre-incubated for 30 mins before incubation with glutamate for 24 hrs by MTT assay. The series is classed as functional, cell-based.
The subject of series [9] is HT-22. Kind of series: Cytotoxicity against mouse HT22 cells assessed as reduction in cell viability at 30 to 100 uM after 24 hrs by MTT assay. The series is classed as cell-based. The note with it: ht-22, 24 h.
In series [10] the test system is HT-22. Briefly: Cytotoxicity against mouse HT22 cells assessed as reduction in cell viability at 10 to 100 uM after 24 hrs by MTT assay. Type of series: cell-based. The note with it: ht-22, 24 h.
In series [11] the test system is HT-22. Briefly: Cytotoxicity against mouse HT22 cells assessed as reduction in cell viability at 10 uM after 24 hrs by MTT assay. Type of series: cell-based. To be noted: ht-22, 24 h.

Amyloid-beta precursor protein (Homo sapiens), sequence (P05067 whole entry): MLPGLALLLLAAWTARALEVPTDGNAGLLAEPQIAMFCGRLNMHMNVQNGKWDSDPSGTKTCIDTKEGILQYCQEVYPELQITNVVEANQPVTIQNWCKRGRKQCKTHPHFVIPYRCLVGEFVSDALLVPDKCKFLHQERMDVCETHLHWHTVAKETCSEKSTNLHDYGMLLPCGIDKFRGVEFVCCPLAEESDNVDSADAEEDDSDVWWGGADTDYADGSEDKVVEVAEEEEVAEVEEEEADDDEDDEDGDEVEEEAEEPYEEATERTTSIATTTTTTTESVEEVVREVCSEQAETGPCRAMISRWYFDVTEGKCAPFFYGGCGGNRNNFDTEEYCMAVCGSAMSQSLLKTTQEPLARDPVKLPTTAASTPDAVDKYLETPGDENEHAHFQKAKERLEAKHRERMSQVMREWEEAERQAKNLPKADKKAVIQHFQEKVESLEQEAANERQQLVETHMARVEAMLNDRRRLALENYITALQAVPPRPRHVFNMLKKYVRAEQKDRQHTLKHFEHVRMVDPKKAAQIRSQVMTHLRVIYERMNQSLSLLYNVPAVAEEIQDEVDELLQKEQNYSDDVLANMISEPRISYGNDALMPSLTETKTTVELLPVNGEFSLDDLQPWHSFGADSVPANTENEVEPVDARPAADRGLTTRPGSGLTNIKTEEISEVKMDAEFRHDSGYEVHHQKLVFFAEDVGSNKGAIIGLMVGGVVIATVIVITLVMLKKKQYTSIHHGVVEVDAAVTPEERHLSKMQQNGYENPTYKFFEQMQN
Beta-secretase 1 (Homo sapiens), sequence (P56817 whole entry, the tested form may be a part): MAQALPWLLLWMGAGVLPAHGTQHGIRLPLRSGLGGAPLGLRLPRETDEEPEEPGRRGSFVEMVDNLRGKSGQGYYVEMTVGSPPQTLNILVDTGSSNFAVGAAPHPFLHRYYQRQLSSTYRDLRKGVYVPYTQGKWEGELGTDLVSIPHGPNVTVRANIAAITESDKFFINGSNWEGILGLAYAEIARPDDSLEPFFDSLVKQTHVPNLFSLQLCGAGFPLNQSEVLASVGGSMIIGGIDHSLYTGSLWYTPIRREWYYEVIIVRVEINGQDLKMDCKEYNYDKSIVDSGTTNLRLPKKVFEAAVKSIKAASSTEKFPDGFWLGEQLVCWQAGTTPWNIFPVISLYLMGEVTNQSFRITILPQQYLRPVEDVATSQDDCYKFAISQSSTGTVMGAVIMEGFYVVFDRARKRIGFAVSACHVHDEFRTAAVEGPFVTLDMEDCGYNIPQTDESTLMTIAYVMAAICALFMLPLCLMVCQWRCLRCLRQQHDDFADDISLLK
Acetylcholinesterase, sequence (O42275 whole entry, the tested form may be a part): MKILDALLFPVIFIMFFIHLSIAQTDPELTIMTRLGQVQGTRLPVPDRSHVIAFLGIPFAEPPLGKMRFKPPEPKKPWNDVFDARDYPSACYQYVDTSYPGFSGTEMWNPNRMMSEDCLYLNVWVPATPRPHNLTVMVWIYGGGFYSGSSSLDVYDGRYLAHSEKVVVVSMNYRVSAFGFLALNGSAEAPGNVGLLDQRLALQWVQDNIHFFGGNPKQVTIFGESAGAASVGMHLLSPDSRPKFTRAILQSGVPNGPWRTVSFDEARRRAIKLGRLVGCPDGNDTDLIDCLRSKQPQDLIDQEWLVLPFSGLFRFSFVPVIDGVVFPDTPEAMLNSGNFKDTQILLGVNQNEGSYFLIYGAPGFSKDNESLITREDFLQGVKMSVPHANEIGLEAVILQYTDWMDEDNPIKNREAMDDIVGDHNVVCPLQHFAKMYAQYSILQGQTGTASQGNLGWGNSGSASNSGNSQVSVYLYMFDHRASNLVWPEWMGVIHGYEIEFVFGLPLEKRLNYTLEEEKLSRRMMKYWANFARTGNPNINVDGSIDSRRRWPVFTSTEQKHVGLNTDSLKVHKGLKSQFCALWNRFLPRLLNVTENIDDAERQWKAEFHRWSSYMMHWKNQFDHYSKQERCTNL
Cholinesterase, sequence (P81908 whole entry): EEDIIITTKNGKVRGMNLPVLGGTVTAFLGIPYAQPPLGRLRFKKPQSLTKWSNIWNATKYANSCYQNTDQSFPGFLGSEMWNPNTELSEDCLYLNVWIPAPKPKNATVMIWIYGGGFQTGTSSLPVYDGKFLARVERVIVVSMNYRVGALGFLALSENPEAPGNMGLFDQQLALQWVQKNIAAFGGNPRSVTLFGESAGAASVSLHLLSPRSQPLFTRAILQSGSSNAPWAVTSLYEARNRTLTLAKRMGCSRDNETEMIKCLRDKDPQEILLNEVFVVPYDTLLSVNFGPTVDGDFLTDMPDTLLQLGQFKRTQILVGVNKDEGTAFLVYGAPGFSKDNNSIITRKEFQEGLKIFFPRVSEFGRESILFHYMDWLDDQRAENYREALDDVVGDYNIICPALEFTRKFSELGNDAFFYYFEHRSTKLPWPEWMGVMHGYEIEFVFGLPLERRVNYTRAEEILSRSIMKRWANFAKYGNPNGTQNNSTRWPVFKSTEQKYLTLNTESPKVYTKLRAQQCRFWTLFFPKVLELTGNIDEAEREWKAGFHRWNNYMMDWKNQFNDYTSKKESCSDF
Description for Acetylcholinesterase: Inhibition of electric eel AChE pre-incubated for 20 mins before acetylcholine iodide substrate addition by Ellman's assay

For the molecule `COc1cc(/C=C/C(=O)NCC(O)CNc2c3c(nc4cc(Cl)ccc24)CCCC3)ccc1O` (stereo not given), the inhibition – broadly, how much of the control response was suppressed – in series [1] turned out to be 13.5%; in series [2] it was 2.57%; in series [3], 48.9%. Also, the IC50 (in general, the concentration needed to halve the response being measured) on Acetylcholinesterase was 20 nM; on Cholinesterase it was 710 nM. Further, the result in the series on HT-22 [4] was inactive. Also, in the series on HT-22 [5], the Activity result is on record as “Toxic”.

Regarding `O=C(/C=C/c1ccc(O)c(O)c1)NCC(O)CNc1c2c(nc3cc(Cl)ccc13)CCCC2` (stereo not given), the outcome in the series on HT-22 [6] was Active. The inhibition in series [1] is 9.2%; in [2], 13.1%; in [3], 53.2%. The results for the 50% inhibitory concentration (IC50) at Acetylcholinesterase and on Cholinesterase were 150 nM and 360 nM, respectively. The Activity entry in series [7] was “Active”; in the series on HT-22 [5] it was “Toxic”.

Consider `O=C(CCCCC1CCSS1)NCC(O)CNc1c2c(nc3ccccc13)CCCC2` (stereo not given), for which the result with HT-22 [8] was Active. Further, the figures for the IC50 on Acetylcholinesterase and at Cholinesterase were 100 nM and 1180 nM, respectively. Further, in [2], the inhibition was 24.8%. Also, the Activity entry with HT-22 [9] is given as “Toxic”.

For `O=C(/C=C/c1ccc(O)c(O)c1)NCC(O)CNc1c2c(nc3ccccc13)CCCC2` (stereo not given), the figures for the inhibition in [1], in [2] and in series [3] were 12.8%, 10.5% and 49.8%, respectively. For the same molecule, the half-inhibitory concentration (IC50) is 700 nM against Acetylcholinesterase and 1010 nM against Cholinesterase. The result in the series with HT-22 [4] was inactive. Besides, the Activity result in the series on HT-22 [10] was “Non-toxic”.

Take `COc1cc(/C=C/C(=O)NCC(O)CNc2c3c(nc4ccccc24)CCCC3)ccc1O` (stereo not given): the inhibition in [1] amounted to 8.4%; in [2], 15%; in series [3], 46.3%. For the same molecule, the values for the IC50 at Acetylcholinesterase and against Cholinesterase were 30 nM and 310 nM, respectively. In addition, the outcome in the series with HT-22 [4] was inactive. Besides, the Activity result with HT-22 [10] is reported as “Non-toxic”.

`O=C(CCCCC1CCSS1)NCC(O)CNc1c2c(nc3cc(Cl)ccc13)CCCC2` (stereo not given): the result in the series on HT-22 [8] was Active. Also, the half-maximal inhibitory concentration (IC50) on Acetylcholinesterase is 40 nM; on Cholinesterase, 1030 nM. For the same molecule, the Activity entry in the series with HT-22 [11] and in the series with HT-22 [9] was “Toxic” throughout. For the same molecule, the inhibition in [2] worked out at 46.8%.

Values taken from ChEMBL document CHEMBL3392989 (Bioorg Med Chem Lett, 2015).
